Values of other authors, collected in patent US20020012702A1, “Controlled release anti-inflammatory oral formulation and a process for the preparation thereof” (Ajanta Pharma, Ltd., priority 2000, published 2002).

nimesulide plasma concentrations in the presence of food versus fasting conditions (administered in the presence of food, higher than under fasting conditions): 2 to 4 fold | half life (in vivo): 3 to 4 h
SMILES: CS(=O)(=O)Nc1ccc([N+](=O)[O-])cc1Oc1ccccc1 [Nimesulide, 4-Nitro-2-phenoxymethane sulfonanilide]
